# Results as given in patent US20240174631A1, “COMPOUNDS, COMPOSITIONS, AND METHODS FOR MODULATING FGF ACTIVITY” (Recovery Therapeutics, Inc., priority 2021, published 2024).
# What was measured:
# [1] = tested on: rodent model of stroke recovery (MCAO); assay: Stroke recovery in vivo after middle cerebral artery occlusion (MCAO): limb placing and body swing tests; conditions: rat MCAO; 10 mg/kg i.v. on Day 1, 2 and 3 after MCAO; vs vehicle, p<0.001; up to Day 21
# Protocol: Compound 2 (2-(1-benzhydrylpiperidin-4-yl)-N,N-diethyl-1,2,3,4-tetrahydroisoquinolin-6-amine) was tested for its effectiveness in a rodent model of stroke recovery. Twenty male Sprague Dawley Rats (Charles River Laboratories) each weighing 300-400 g were used in this experiment. First, anesthesia was induced in an induction chamber with 2-3% isoflurane in N2O:O2 (2:1) and maintained with 1-1.5% isoflurane via face mask. Adequate depth of anesthesia was assessed by lack of withdrawal to hindlimb pinch and loss of eyeblink reflex. Once anesthetized, animals received cefazolin sodium (40 mg/kg, i.p.) and buprenorphine SR (0.9-1 mg/kg, s.c.). Cefazolin was used as a prophylactic antibiotic. A veterinary ophthalmic ointment (Sodium Chloride hypertonicity ophthalmic ointment (Muro 128 Sterile Ophthalmic 5% Ointment)) was applied to the eyes. […]
# Behavioral evaluations of sensorimotor function were done by investigators blinded to treatment assignment. […] For the forelimb-placing test, the examiner held the rat close to a tabletop and scored the rat's ability to place the forelimb on the tabletop in response to whisker, visual, tactile, or proprioceptive stimulation. Similarly, for the hindlimb placing test, the examiner assessed the rat's ability to place the hindlimb on the tabletop in response to tactile and proprioceptive stimulation. […]
# [2] = Body weight pre- and post-MCAO; type: in vivo; conditions: rat MCAO; 10 mg/kg i.v. on Day 1, 2 and 3 after MCAO
# Protocol: The rats were randomly assigned into two groups of ten each. Each group was injected intravenously (i.v.) with 2 ml/kg Compound 2 at 10 mg/kg or vehicle (18% Cremophor RH40 and 10% DMSO in 5% dextrose solution (D5WW)) on Day 1, 2, and 3 after MCAO. Day 0 is the day of the MCAO, and the days after the MCAO are numbered consecutively (Day 1, Day 2, Day 3, etc.) D-pre represents the day prior to the MCAO.
# Typically, after an initial rapid rise, there is a continued slow, steady, and partial improvement in sensorimotor function (as measured by forelimb and hindlimb placing and body swing tests) during the first three weeks after stroke. […] The normal rise in body weight following surgery was not affected by treatment with Compound 2.
smiles,measurement,setting,value
"CCN(CC)c1ccc2c(c1)CCN(C1CCN(C(c3ccccc3)c3ccccc3)CC1)C2 [Compound 2, 2-(1-benzhydrylpiperidin-4-yl)-N,N-diethyl-1,2,3,4-tetrahydroisoquinolin-6-amine]","sensorimotor recovery (forelimb placing, hindlimb placing and body swing tests)",[1],clear and significant augmentation of sensorimotor recovery
same,rise in body weight following surgery,[2],not affected
